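Grown in 96-well plates, cells were treated for 48 hours with each compound at five concentrations. Insufficient inhibition: endpoint recorded as highest concentration tested. The concentration for 50% growth inhibition is given as GI50. Definition used: TGI = concentration required for complete inhibition of growth.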
Assays:
Experiment in all cases: NCI anticancer screen, dose series, 48 h
MDA-MB-435 = test system: MDA-MB-435
UO-31 renal = test system: UO-31 renal
SN12C renal = test system: SN12C renal
U251 CNS = test system: U251 CNS
OVCAR-8 ovarian = test system: OVCAR-8 ovarian
SK-OV-3 ovarian = test system: SK-OV-3 ovarian
IGROV1 ovarian = test system: IGROV1 ovarian
SW-620 colon = test system: SW-620 colon
EKVX NSCLC = test system: EKVX NSCLC
OVCAR-5 ovarian = test system: OVCAR-5 ovarian
NCI-H226 lung = test system: NCI-H226 lung
LOX IMVI melanoma = test system: LOX IMVI melanoma
PC-3 prostate = test system: PC-3 prostate
CCRF-CEM leukemia = test system: CCRF-CEM leukemia
HL-60(TB) leukemia = test system: HL-60(TB) leukemia
T-47D breast = test system: T-47D breast
A549 NSCLC = test system: A549 NSCLC
RXF 393 renal = test system: RXF 393 renal
HT29 colon = test system: HT29 colon
BT-549 breast = test system: BT-549 breast
MOLT-4 leukemia = test system: MOLT-4 leukemia
MALME-3M melanoma = test system: MALME-3M melanoma
MDA-MB-231 breast = test system: MDA-MB-231 breast
RPMI-8226 leukemia = test system: RPMI-8226 leukemia
786-0 renal = test system: 786-0 renal
K-562 leukemia = test system: K-562 leukemia
OVCAR-3 ovarian = test system: OVCAR-3 ovarian
MCF7 breast = test system: MCF7 breast
UACC-257 melanoma = test system: UACC-257 melanoma
SF-268 CNS = test system: SF-268 CNS
KM12 colon = test system: KM12 colon
ACHN renal = test system: ACHN renal
SNB-19 CNS = test system: SNB-19 CNS
DU-145 prostate = test system: DU-145 prostate
HOP-92 NSCLC = test system: HOP-92 NSCLC
A498 renal = test system: A498 renal
SK-MEL-2 melanoma = test system: SK-MEL-2 melanoma
OVCAR-4 ovarian = test system: OVCAR-4 ovarian
NCI-H460 lung = test system: NCI-H460 lung
SNB-75 CNS = test system: SNB-75 CNS
SR leukemia = test system: SR leukemia
COLO 205 colon = test system: COLO 205 colon
HCT-15 colon = test system: HCT-15 colon
HS 578T breast = test system: HS 578T breast
NCI/ADR-RES ovarian = test system: NCI/ADR-RES ovarian
CAKI-1 renal = test system: CAKI-1 renal
NCI-H23 lung = test system: NCI-H23 lung
UACC-62 melanoma = test system: UACC-62 melanoma
M14 melanoma = test system: M14 melanoma
TK-10 renal = test system: TK-10 renal
HCC-2998 colon = test system: HCC-2998 colon
SF-295 CNS = test system: SF-295 CNS
SK-MEL-28 melanoma = test system: SK-MEL-28 melanoma
HCT-116 colon = test system: HCT-116 colon
SF-539 CNS = test system: SF-539 CNS
SK-MEL-5 melanoma = test system: SK-MEL-5 melanoma
NCI-H522 lung = test system: NCI-H522 lung
HOP-62 NSCLC = test system: HOP-62 NSCLC

COc1ccc(C2CC(c3cc(Cl)c(C)cc3O)=NN2c2ccc(S(N)(=O)=O)cc2)cc1OC (stereo unspecified)
GI50 (MDA-MB-435): 3.97 µM | TGI (MDA-MB-435): 24 µM | GI50 (UO-31 renal): 3.3 µM | TGI (UO-31 renal): > 100 µM | GI50 (SN12C renal): 3.7 µM | TGI (SN12C renal): 30 µM | GI50 (U251 CNS): 3.71 µM | TGI (U251 CNS): 14 µM | GI50 (OVCAR-8 ovarian): 3.39 µM | TGI (OVCAR-8 ovarian): 17.9 µM | GI50 (SK-OV-3 ovarian): 4.51 µM | TGI (SK-OV-3 ovarian): 38.3 µM | GI50 (IGROV1 ovarian): 2.34 µM | TGI (IGROV1 ovarian): 5.46 µM | GI50 (SW-620 colon): 4.08 µM | TGI (SW-620 colon): 26.6 µM | GI50 (EKVX NSCLC): 4.15 µM | TGI (EKVX NSCLC): > 100 µM | GI50 (OVCAR-5 ovarian): 2.25 µM | TGI (OVCAR-5 ovarian): 6.36 µM | GI50 (NCI-H226 lung): 5.62 µM | TGI (NCI-H226 lung): 23.1 µM | GI50 (LOX IMVI melanoma): 3.35 µM | TGI (LOX IMVI melanoma): 11 µM | GI50 (PC-3 prostate): 2.61 µM | TGI (PC-3 prostate): 13.7 µM | GI50 (CCRF-CEM leukemia): 5.35 µM | TGI (CCRF-CEM leukemia): > 100 µM | GI50 (HL-60(TB) leukemia): 3.42 µM | TGI (HL-60(TB) leukemia): > 100 µM | GI50 (T-47D breast): 3.1 µM | TGI (T-47D breast): 13.3 µM | GI50 (A549 NSCLC): 3.54 µM | TGI (A549 NSCLC): 19.7 µM | GI50 (RXF 393 renal): 2.88 µM | TGI (RXF 393 renal): 7.52 µM | GI50 (HT29 colon): 2.24 µM | TGI (HT29 colon): 6.48 µM | GI50 (BT-549 breast): 3.03 µM | TGI (BT-549 breast): 13.4 µM | GI50 (MOLT-4 leukemia): 5.29 µM | TGI (MOLT-4 leukemia): > 100 µM | GI50 (MALME-3M melanoma): 3.65 µM | TGI (MALME-3M melanoma): 24.6 µM | GI50 (MDA-MB-231 breast): 3.81 µM | TGI (MDA-MB-231 breast): 12.5 µM | GI50 (RPMI-8226 leukemia): 4.1 µM | TGI (RPMI-8226 leukemia): > 100 µM | GI50 (786-0 renal): 2.37 µM | TGI (786-0 renal): 5.04 µM | GI50 (K-562 leukemia): 3.18 µM | TGI (K-562 leukemia): > 100 µM | GI50 (OVCAR-3 ovarian): 3.37 µM | TGI (OVCAR-3 ovarian): 9.8 µM | GI50 (MCF7 breast): 3.07 µM | TGI (MCF7 breast): 13.6 µM | GI50 (UACC-257 melanoma): 4.22 µM | TGI (UACC-257 melanoma): 19.7 µM | GI50 (SF-268 CNS): 4.74 µM | TGI (SF-268 CNS): > 100 µM | GI50 (KM12 colon): 3.07 µM | TGI (KM12 colon): 8.77 µM | GI50 (ACHN renal): 3.15 µM | TGI (ACHN renal): 12.2 µM | GI50 (SNB-19 CNS): 5.53 µM | TGI (SNB-19 CNS): 89.3 µM | GI50 (DU-145 prostate): 4.49 µM | TGI (DU-145 prostate): 21.7 µM | GI50 (HOP-92 NSCLC): 1.81 µM | TGI (HOP-92 NSCLC): 7.42 µM | GI50 (A498 renal): 3.98 µM | TGI (A498 renal): 24.7 µM | GI50 (SK-MEL-2 melanoma): 5.87 µM | TGI (SK-MEL-2 melanoma): 32.7 µM | GI50 (OVCAR-4 ovarian): 4.18 µM | TGI (OVCAR-4 ovarian): > 100 µM | GI50 (NCI-H460 lung): 2.5 µM | TGI (NCI-H460 lung): 5.85 µM | GI50 (SNB-75 CNS): 2.7 µM | TGI (SNB-75 CNS): 97.2 µM | GI50 (SR leukemia): 2.82 µM | TGI (SR leukemia): > 100 µM | GI50 (COLO 205 colon): 1.93 µM | TGI (COLO 205 colon): 3.41 µM | GI50 (HCT-15 colon): 3.32 µM | TGI (HCT-15 colon): 20.2 µM | GI50 (HS 578T breast): 3.29 µM | TGI (HS 578T breast): 34.3 µM | GI50 (NCI/ADR-RES ovarian): 3.39 µM | TGI (NCI/ADR-RES ovarian): 14.1 µM | GI50 (CAKI-1 renal): 2.78 µM | TGI (CAKI-1 renal): > 100 µM | GI50 (NCI-H23 lung): 3.11 µM | TGI (NCI-H23 lung): 13.6 µM | GI50 (UACC-62 melanoma): 3.13 µM | TGI (UACC-62 melanoma): 12.9 µM | GI50 (M14 melanoma): 2.61 µM | TGI (M14 melanoma): 7.2 µM | GI50 (TK-10 renal): 3.97 µM | TGI (TK-10 renal): 18.4 µM | GI50 (HCC-2998 colon): 2.72 µM | TGI (HCC-2998 colon): 7.25 µM | GI50 (SF-295 CNS): 2.7 µM | TGI (SF-295 CNS): 6.24 µM | GI50 (SK-MEL-28 melanoma): 4.29 µM | TGI (SK-MEL-28 melanoma): 17.7 µM | GI50 (HCT-116 colon): 1.72 µM | TGI (HCT-116 colon): 4.36 µM | GI50 (SF-539 CNS): 2.1 µM | TGI (SF-539 CNS): 4.75 µM | GI50 (SK-MEL-5 melanoma): 4.28 µM | TGI (SK-MEL-5 melanoma): 15.2 µM | GI50 (NCI-H522 lung): 2.95 µM | TGI (NCI-H522 lung): 9.61 µM | GI50 (HOP-62 NSCLC): 3.92 µM | TGI (HOP-62 NSCLC): 14.1 µM

Source: PubChem BioAssay (NCI)
